Laboratory results from patent US7511151B2 (priority 2002, dated 2009).

Tested on: Erysiphe graminis f. sp. hordei
Details: in vivo

`CC#CC(C)(C)NC(=O)C(OCC)Oc1cncc(Cl)c1` (stereo not shown) [1 (1), 2-(5-chloropyridyl-3-oxy)-2-(ethoxy)-N-(2-methylpent-3-yn-2-yl) acetamide] was tested, and the control of disease was > 60%.
